Laboratory results taken from ChEMBL document CHEMBL5143607, “Discovery and structure-activity relationships of a novel oxazolidinone class of bacterial type II topoisomerase inhibitors” (Bioorg Med Chem Lett, 2022).
Converted amounts (≈) assume the structure as drawn.

What was measured:
[1] = Inhibition of Escherichia coli topoisomerase 4 assessed as reduction in decatenation
[2] = Cytotoxicity against human HepG2 cells assessed as reduction in cell viability for 24 hrs by Celltiter-Glo assay; assay type: toxicity, cell-based
[3] = test system: Acinetobacter baumannii; experiment: Antibacterial activity against Acinetobacter baumannii NCTC 13420 assessed as bacterial growth inhibition by CLSI protocol based assay; assay type: functional
[4] = test system: Klebsiella pneumoniae; experiment: Antibacterial activity against Klebsiella pneumoniae ATCC 700603 assessed as bacterial growth inhibition by CLSI protocol based assay; assay type: functional
[5] = test system: Pseudomonas aeruginosa; experiment: Antibacterial activity against Pseudomonas aeruginosa ATCC 27853 assessed as bacterial growth inhibition by CLSI protocol based assay; assay type: functional
[6] = test system: Escherichia coli; experiment: Antibacterial activity against Escherichia coli W4573 assessed as bacterial growth inhibition by CLSI protocol based assay; assay type: functional
[7] = test system: Escherichia coli; experiment: Antibacterial activity against Escherichia coli N43 assessed as bacterial growth inhibition by CLSI protocol based assay; assay type: functional
[8] = test system: Staphylococcus aureus; experiment: Antibacterial activity against Staphylococcus aureus ATCC 29213 assessed as bacterial growth inhibition by CLSI protocol based assay; assay type: functional
[9] = biological target: Voltage-gated inwardly rectifying potassium channel KCNH2 (Homo sapiens, UniProt Q12809); experiment: Inhibition of human ERG by Ionworks electrophysiology assay; assay type: toxicity
Voltage-gated inwardly rectifying potassium channel KCNH2, sequence (Q12809 whole entry): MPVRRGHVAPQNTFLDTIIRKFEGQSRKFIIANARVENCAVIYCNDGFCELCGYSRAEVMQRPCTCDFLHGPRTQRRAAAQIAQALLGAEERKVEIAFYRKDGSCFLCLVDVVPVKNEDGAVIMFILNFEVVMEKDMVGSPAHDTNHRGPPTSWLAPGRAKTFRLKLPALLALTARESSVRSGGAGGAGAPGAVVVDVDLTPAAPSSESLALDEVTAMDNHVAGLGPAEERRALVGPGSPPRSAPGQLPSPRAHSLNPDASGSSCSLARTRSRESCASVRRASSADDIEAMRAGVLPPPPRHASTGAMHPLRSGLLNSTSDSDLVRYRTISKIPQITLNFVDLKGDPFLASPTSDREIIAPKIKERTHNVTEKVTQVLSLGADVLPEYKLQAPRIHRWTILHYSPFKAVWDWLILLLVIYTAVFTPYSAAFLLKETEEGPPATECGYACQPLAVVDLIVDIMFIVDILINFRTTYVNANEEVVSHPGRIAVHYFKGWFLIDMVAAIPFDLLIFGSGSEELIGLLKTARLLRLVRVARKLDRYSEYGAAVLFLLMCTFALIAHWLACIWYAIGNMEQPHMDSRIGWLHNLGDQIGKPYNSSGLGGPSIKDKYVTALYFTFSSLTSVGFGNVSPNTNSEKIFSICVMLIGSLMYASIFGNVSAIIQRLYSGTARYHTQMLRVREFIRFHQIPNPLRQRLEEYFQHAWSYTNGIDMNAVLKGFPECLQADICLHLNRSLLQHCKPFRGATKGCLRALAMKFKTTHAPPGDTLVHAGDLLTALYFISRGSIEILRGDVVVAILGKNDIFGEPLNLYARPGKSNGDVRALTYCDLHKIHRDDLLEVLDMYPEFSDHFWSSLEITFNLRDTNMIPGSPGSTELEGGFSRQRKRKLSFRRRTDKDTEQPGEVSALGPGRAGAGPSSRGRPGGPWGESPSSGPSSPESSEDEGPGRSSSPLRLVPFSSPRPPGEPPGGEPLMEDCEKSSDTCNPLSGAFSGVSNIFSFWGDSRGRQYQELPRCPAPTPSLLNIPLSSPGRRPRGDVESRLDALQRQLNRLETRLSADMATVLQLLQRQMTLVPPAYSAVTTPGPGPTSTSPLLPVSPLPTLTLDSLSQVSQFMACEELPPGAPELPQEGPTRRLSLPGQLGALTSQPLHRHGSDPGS

[10] = Lipophilicity, logD of the compound by shake flask assay; assay type: physicochemical; settings: octanol/water
[11] = Protein binding in mouse plasma by equilibrium dialysis assay; assay type: ADME, cell-free; settings: for fraction unbound: read-out: PPB (converted)
[12] = Protein binding in human plasma by equilibrium dialysis assay; assay type: ADME, cell-free; settings: read-out: PPB (converted)
[13] = test system: Acinetobacter baumannii; experiment: Antibacterial activity against […] Acinetobacter baumannii clinical isolate 43 assessed as bacterial growth inhibition by CLSI protocol based assay; assay type: functional
[14] = test system: Pseudomonas aeruginosa; experiment: Antibacterial activity against Pseudomonas aeruginosa clinical isolate 42 assessed as bacterial growth inhibition by CLSI protocol based assay; assay type: functional
[15] = test system: Enterobacter cloacae; experiment: Antibacterial activity against Enterobacter cloacae clinical isolate 41 assessed as bacterial growth inhibition by CLSI protocol based assay; assay type: functional
[16] = test system: Escherichia coli; experiment: Antibacterial activity against Escherichia coli clinical isolate 42 assessed as bacterial growth inhibition by CLSI protocol based assay; assay type: functional
[17] = test system: Klebsiella pneumoniae; experiment: Antibacterial activity against Klebsiella pneumoniae clinical isolate 42 assessed as bacterial growth inhibition by CLSI protocol based assay; assay type: functional
[18] = biological target: DNA topoisomerase 2-alpha (Homo sapiens, UniProt P11388); experiment: Inhibition of human topoisomerase 2 assessed as reduction in decatenation
DNA topoisomerase 2-alpha, sequence (P11388 whole entry): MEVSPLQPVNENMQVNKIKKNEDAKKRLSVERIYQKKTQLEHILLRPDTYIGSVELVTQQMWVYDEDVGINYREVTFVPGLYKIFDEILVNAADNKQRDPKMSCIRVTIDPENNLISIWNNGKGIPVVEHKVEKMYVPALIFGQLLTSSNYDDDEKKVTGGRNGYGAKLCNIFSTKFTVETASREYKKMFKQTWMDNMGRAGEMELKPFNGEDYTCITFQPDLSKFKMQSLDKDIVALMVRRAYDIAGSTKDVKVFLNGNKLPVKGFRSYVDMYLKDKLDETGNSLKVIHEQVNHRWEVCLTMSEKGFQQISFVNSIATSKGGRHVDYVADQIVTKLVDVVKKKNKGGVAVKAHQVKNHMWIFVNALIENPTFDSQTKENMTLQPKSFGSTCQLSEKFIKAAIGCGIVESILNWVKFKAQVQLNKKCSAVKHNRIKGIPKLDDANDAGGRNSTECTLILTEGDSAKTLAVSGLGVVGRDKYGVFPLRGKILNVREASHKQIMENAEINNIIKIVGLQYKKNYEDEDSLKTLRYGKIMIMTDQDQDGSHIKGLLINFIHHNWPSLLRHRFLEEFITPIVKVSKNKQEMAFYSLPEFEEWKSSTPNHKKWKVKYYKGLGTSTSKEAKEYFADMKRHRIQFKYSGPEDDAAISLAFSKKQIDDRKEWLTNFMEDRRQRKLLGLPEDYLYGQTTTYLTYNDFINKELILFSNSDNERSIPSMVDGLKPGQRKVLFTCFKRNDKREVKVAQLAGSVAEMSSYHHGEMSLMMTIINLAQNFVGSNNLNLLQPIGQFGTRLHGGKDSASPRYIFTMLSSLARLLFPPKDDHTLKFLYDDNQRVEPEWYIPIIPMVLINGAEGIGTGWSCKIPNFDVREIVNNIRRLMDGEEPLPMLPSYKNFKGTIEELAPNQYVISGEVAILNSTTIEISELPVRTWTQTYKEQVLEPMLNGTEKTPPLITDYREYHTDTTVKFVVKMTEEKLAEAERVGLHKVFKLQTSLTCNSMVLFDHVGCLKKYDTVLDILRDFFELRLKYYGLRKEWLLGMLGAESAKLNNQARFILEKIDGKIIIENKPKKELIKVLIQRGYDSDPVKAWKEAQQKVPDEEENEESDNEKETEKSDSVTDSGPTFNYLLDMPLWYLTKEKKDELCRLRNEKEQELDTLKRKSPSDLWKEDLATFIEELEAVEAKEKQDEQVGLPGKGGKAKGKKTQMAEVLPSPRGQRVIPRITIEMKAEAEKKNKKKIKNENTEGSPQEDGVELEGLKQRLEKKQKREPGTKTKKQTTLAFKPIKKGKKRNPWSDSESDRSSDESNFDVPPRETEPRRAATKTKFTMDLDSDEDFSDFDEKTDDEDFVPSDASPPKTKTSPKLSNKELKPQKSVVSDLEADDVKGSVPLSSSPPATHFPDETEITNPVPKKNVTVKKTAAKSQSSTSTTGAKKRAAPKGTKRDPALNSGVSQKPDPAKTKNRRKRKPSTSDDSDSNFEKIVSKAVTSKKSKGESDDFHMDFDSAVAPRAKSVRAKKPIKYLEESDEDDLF

[19] = test system: Escherichia coli; experiment: Resistance development in Escherichia coli ATCC25922 assessed as spontaneous resistance frequency at 4 times MIC by resistance development assay; assay type: functional
[20] = test system: Escherichia coli; experiment: Antibacterial activity against Escherichia coli ATCC25922 assessed as bacterial growth inhibition by CLSI protocol based assay; assay type: functional
[21] = test system: Acinetobacter baumannii; experiment: In vivo antibacterial activity against multidrug resistant Acinetobacter baumannii NCTC 13420 infected in mouse thigh infection model assessed in reduction in bacterial burden at 20 mg/kg, iv administered at 1 hr post infection and measured after 8 hrs (reference value: 5.4 log10CFU/g); assay type: functional
[22] = test system: Acinetobacter baumannii; experiment: In vivo antibacterial activity against multidrug resistant Acinetobacter baumannii NCTC 13420 infected in mouse thigh infection model assessed as log change in bacterial burden at 20 mg/kg, iv administered at 1 hr post infection and measured after 8 hrs relative to control; assay type: functional
[23] = biological target: DNA gyrase (Escherichia coli, UniProt P0AES4+P0AES6); experiment: Inhibition of Escherichia coli DNA gyrase supercoiling activity; assay type: protein-complex assay
[24] = Intrinsic clearance in mouse liver microsomes in presence of NADPH and measured upto 45 mins; assay type: ADME, Microsome; settings: read-out: CLH
[25] = Intrinsic clearance in human liver microsomes in presence of NADPH and measured upto 45 mins; assay type: ADME, Microsome; settings: read-out: CLH
[26] = Kinetic solubility of compound; assay type: physicochemical; settings: read-out: Kinetic_solubility
[27] = Plasma protein binding in mouse assessed as free fraction by equilibrium dialysis assay; assay type: ADME, cell-free
[28] = test system: Acinetobacter baumannii; experiment: In vivo antibacterial activity against multidrug resistant Acinetobacter baumannii NCTC 13420 infected in mouse thigh infection model assessed in reduction in bacterial burden at 30 mg/kg, sc administered at 1 hr post infection and measured after 8 hrs (reference value: 5.4 log10CFU/g); assay type: functional
[29] = test system: Acinetobacter baumannii; experiment: In vivo antibacterial activity against multidrug resistant Acinetobacter baumannii NCTC 13420 infected in mouse thigh infection model assessed in reduction in bacterial burden at 45 mg/kg, sc administered at 1 hr post infection and measured after 8 hrs (reference value: 5.4 log10CFU/g); assay type: functional
[30] = test system: Acinetobacter baumannii; experiment: In vivo antibacterial activity against multidrug resistant Acinetobacter baumannii NCTC 13420 infected in mouse thigh infection model assessed in reduction in bacterial burden at 60 mg/kg, sc administered at 1 hr post infection and measured after 8 hrs (reference value: 5.4 log10CFU/g); assay type: functional
[31] = test system: Acinetobacter baumannii; experiment: In vivo antibacterial activity against multidrug resistant Acinetobacter baumannii NCTC 13420 infected in mouse thigh infection model assessed in reduction in bacterial burden at 120 mg/kg, sc administered at 1 hr post infection and measured after 8 hrs (reference value: 5.4 log10CFU/g); assay type: functional
[32] = test system: Acinetobacter baumannii; experiment: In vivo antibacterial activity against multidrug resistant Acinetobacter baumannii NCTC 13420 infected in mouse thigh infection model assessed as log change in bacterial burden at 30 mg/kg, sc administered at 1 hr post infection and measured after 8 hrs relative to control; assay type: functional
[33] = test system: Acinetobacter baumannii; experiment: In vivo antibacterial activity against multidrug resistant Acinetobacter baumannii NCTC 13420 infected in mouse thigh infection model assessed as log change in bacterial burden at 45 mg/kg, sc administered at 1 hr post infection and measured after 8 hrs relative to control; assay type: functional
[34] = test system: Acinetobacter baumannii; experiment: In vivo antibacterial activity against multidrug resistant Acinetobacter baumannii NCTC 13420 infected in mouse thigh infection model assessed as log change in bacterial burden at 60 mg/kg, sc administered at 1 hr post infection and measured after 8 hrs relative to control; assay type: functional
[35] = test system: Acinetobacter baumannii; experiment: In vivo antibacterial activity against multidrug resistant Acinetobacter baumannii NCTC 13420 infected in mouse thigh infection model assessed as log change in bacterial burden at 120 mg/kg, sc administered at 1 hr post infection and measured after 8 hrs relative to control; assay type: functional

SMILES	IC50 [1] [µM]	IC50 at 24 h [2] [µg/mL]	MIC [3] [µg/mL]	MIC [4] [µg/mL]	MIC [5] [µg/mL]	MIC [6] [µg/mL]	MIC [7] [µg/mL]	MIC [8] [µg/mL]	IC50 [9] [µM]	logD [10]	fraction unbound [11]	fraction unbound [12]	MIC90 [13] [µg/mL]	IC50 [18] [µM]	Activity [19]	MIC [20] [µg/mL]	IC50 [23] [µM]	microsomal CLint [24] [µL/min/mg]	microsomal CLint [25] [µL/min/mg]	solubility kinetic [26] [µM]	other results
O=c1ccc2ncc(=O)n3c2n1C[C@H]3CN1CCC(NCc2cc3c(cn2)OCCC3)CC1 [GEPOTIDACIN]	0.035	> 128	16 (≈ 35.7 µM)	16 (≈ 35.7 µM)	2 (≈ 4.46 µM)	0.5 (≈ 1.11 µM)	0.015 (≈ 0.0334 µM)	0.5 (≈ 1.11 µM)	> 100	-0.63	< 0.7	< 0.7	32 (≈ 71.3 µM)	55.2	<2 10^-8No_unit	0.03 (≈ 0.0669 µM)	–	–	–	–	MIC90 [14]: 16 µg/mL (≈ 35.7 µM); MIC90 [15]: 16 µg/mL (≈ 35.7 µM); MIC90 [16]: 4 µg/mL (≈ 8.92 µM); MIC90 [17]: 16 µg/mL (≈ 35.7 µM)
CN(C)c1cc(NC(=O)CNC(C)(C)C)c(O)c2c1C[C@H]1C[C@H]3[C@H](N(C)C)C(O)=C(C(N)=O)C(=O)[C@@]3(O)C(O)=C1C2=O [TIGECYCLINE]	–	–	–	–	–	–	–	–	–	–	–	–	–	–	–	–	–	–	–	–	Activity [21]: 4.2 log10CFU/g; Activity [22]: -1.2 log10CFU/g
N#Cc1ccc2ccc(=O)n(CCN[C@H]3CC[C@H]4[C@H](C3)OC(=O)N4c3ccc4c(n3)NC(=O)CO4)c2c1	0.23	> 128	0.25 (≈ 0.499 µM)	2 (≈ 4 µM)	2 (≈ 4 µM)	0.03 (≈ 0.0599 µM)	≤ 0.002	0.03 (≈ 0.0599 µM)	> 100	1.51	–	–	–	72.8	<7.1 10^-9No_unit	0.25 (≈ 0.499 µM)	0.03	125	59	62 (≈ 31 µg/mL)	fraction unbound [27]: > 0.3
COc1ccc2ccc(=O)n(CCN[C@@H]3CC[C@@H]4[C@H](C3)OC(=O)N4c3ccc4c(n3)NC(=O)CO4)c2n1	–	> 32	1 (≈ 1.97 µM)	8 (≈ 15.8 µM)	4 (≈ 7.9 µM)	0.25 (≈ 0.494 µM)	0.004 (≈ 0.0079 µM)	0.008 (≈ 0.0158 µM)	5	2	0.873	0.965	–	–	–	–	–	–	–	–	–
COc1ccc2ccc(=O)n(CCN[C@H]3CC[C@H]4[C@H](C3)OC(=O)N4c3ccc4c(n3)NC(=O)CO4)c2n1	0.01	> 64	0.03 (≈ 0.0592 µM)	4 (≈ 7.9 µM)	1 (≈ 1.97 µM)	0.12 (≈ 0.237 µM)	< 0.008	0.008 (≈ 0.0158 µM)	5	1.95	–	0.856	0.5 (≈ 0.987 µM)	14.4	<2.4 10^-9No_unit	0.06 (≈ 0.118 µM)	0.055	264	110	76 (≈ 38.5 µg/mL)	PPB [11]: 15.8%; MIC90 [14]: 4 µg/mL (≈ 7.9 µM); MIC90 [15]: 4 µg/mL (≈ 7.9 µM); MIC90 [16]: 1 µg/mL (≈ 1.97 µM); MIC90 [17]: 4 µg/mL (≈ 7.9 µM); Fu [27]: 15%; Activity [28]: 7.1 log10CFU/g; Activity [29]: 6.6 log10CFU/g; Activity [30]: 4.4 log10CFU/g; Activity [31]: 3.9 log10CFU/g; Activity [32]: 1.7 log10CFU/g; Activity [33]: 1.2 log10CFU/g; Activity [34]: -1 log10CFU/g; Activity [35]: -1.5 log10CFU/g
COc1ccc2ccc(=O)n(CCN[C@H]3CC[C@H]4[C@H](C3)OC(=O)N4c3ccc4c(n3)NC(=O)CS4)c2n1	0.024	35 (≈ 67 µM)	0.015 (≈ 0.0287 µM)	2 (≈ 3.83 µM)	1 (≈ 1.91 µM)	0.12 (≈ 0.23 µM)	≤ 0.002	≤ 0.002	4	2.58	–	–	–	> 100	–	0.06 (≈ 0.115 µM)	0.105	> 277	267	54 (≈ 28.2 µg/mL)	fraction unbound [27]: 0.09
C[C@H]1COc2c(N3CCN(C)CC3)c(F)cc3c(=O)c(C(=O)O)cn1c23.C[C@H]1COc2c(N3CCN(C)CC3)c(F)cc3c(=O)c(C(=O)O)cn1c23.O [LEVOFLOXACIN]	–	–	–	–	–	–	–	–	–	–	–	–	16	–	–	–	–	–	–	–	MIC90 [14]: 32 µg/mL; MIC90 [15]: 32 µg/mL; MIC90 [16]: 16 µg/mL; MIC90 [17]: 16 µg/mL
COc1ccc2ccc(=O)n(CCN[C@H]3CC[C@H]4[C@@H](C3)OC(=O)N4c3ccc4c(n3)NC(=O)CO4)c2n1	–	> 8	0.12 (≈ 0.237 µM)	8 (≈ 15.8 µM)	2 (≈ 3.95 µM)	0.5 (≈ 0.987 µM)	< 0.008	0.03 (≈ 0.0592 µM)	3	2	0.878	0.919	–	–	–	–	–	–	–	–	–
COc1cnc2ccc(=O)n(CCCN[C@H]3CC[C@H]4[C@H](C3)OC(=O)N4c3ccc4c(n3)NC(=O)CO4)c2c1	0.015	> 64	0.5 (≈ 0.961 µM)	8 (≈ 15.4 µM)	2 (≈ 3.84 µM)	0.25 (≈ 0.48 µM)	0.008 (≈ 0.0154 µM)	0.06 (≈ 0.115 µM)	> 100	0.94	–	–	–	> 100	3.2 10^-7No_unit	–	0.46	9	< 3	> 100	fraction unbound [27]: > 0.3
